Consider seven molecules from patent US20230125052A1, “RED BLOOD CELL-DERIVED VESICLE” (Imperial College Innovations Limited, priority 2019, published 2023).

Series [1] relates to fibrin clot. Briefly: Fibrin clot lysis, agar plate assay, in the presence of activated platelets. The format is biochemical. Conditions: equivalent tPA 1 mg mL^-1, 37° C. overnight, activated platelets present. Here is the method:
Fibrin clot lysis by the tPA-loaded vesicles was measured by an agar plate assay. Briefly, 300 mg agar was dissolved in buffer mixture (15 mL of 0.05 M Tris-HCl buffer at pH 7.2 and 5 mL of 0.025 M CaCl2 solution). 50 mg Fibrinogen was dissolved in 10 mL of Tris-HCl buffer (0.05 M, pH 7.2). The agar solution was mixed with the fibrinogen solution, and then 10 µL thrombin (4.0 µM) was added under stirring for 1 min. The resulting mixture was spread carefully on a transparent plastic plate and homogeneous gels were obtained at 37° C. after 3h. […] were created in each plate and 5 µL of plasminogen solution (1 mg mL^-1) was then added into each sample well. PBS buffer, tPA-RBCVs, tPA-RGD-RBCVs, tPA-cRGD-PEG-RBCVs and free tPA (equivalent tPA dose of 1 mg mL^-1) were added into respective sample wells and incubated at 37° C. overnight. The area of the lysed zone in each well was measured to evaluate the degree of fibrin clot lysis.

For series [2] the following is noted: in circulation, background; cited from earlier work.
The test system of series [3] is Halo blood clots. Kind of series: Blood clot lysis in a Halo blood clot model. The format is cell-based, sheep. As to conditions: after 45 min of treatment. Here is the method:
Briefly, a clotting mixture (5 mL of buffer containing 66 mM Tris-HCl, 130 mM NaCl and 45 mM CaCl2; 5 µL of 1 µM thrombin, pH 7.4) was freshly prepared. In a 96-well microplate, 5 µL of this clotting mixture was placed on one side of the well bottom, then 15 µL of whole blood was added on the opposite side of the well bottom. Clotting was initiated by mixing the two drops with a pipette tip in a circular motion to form a homogenous halo shape of blood around the edge of the well bottom, leaving the centre area empty. The plate was covered and incubated at 37° C. for 30 min. After clot formation, 80 µL tPA-RBCVs, tPA-RGD-RBCVs, tPA-cRGD-PEG-RBCVs and free tPA (equivalent tPA dose of 1 mg mL^-1) were added simultaneously into respective wells containing halo clots. The dissolution of the halo clots was determined with a plate reader GloMax-Multi Microplate Multimode Reader (Promega, USA) by measuring absorbance at 495 nm caused by RBCs progressively covering the centre of the well after clot degradation at 37° C. […] The percentage of clot dissolution was calculated according to the following equation: […]
where As is the absorbance of well at 495 nm after incubation with samples; An is the absorbance of negative control well at 495 nm; Ap is the absorbance of positive control well at 495 nm.

The subject of series [4] is fibrinogen mediated platelet aggregation in platelet-rich plasma (active αIIbβ3). The format is cell-based, sheep. Here is the method: Binding affinity of free liner RGD or cRGD peptides to activated platelets can be indicated by a half maximal inhibitory concentration (IC50) value, which is the peptide concentration required to inhibit fibrinogen mediated platelet aggregation in platelet-rich plasma (PRP) by 50%. PRP was incubated with various concentrations of liner RGD or cRGD peptides in the presence of platelet agonist, thrombin (4 µM) for 30 min under stirring. The platelet aggregation percentage was determined with a GloMax-Multi Microplate Multimode Reader (Promega, USA) by measuring the absorbance at 595 nm. The platelet aggregation percentage was calculated by the following equation: […]
where Ao is the initial absorbance at 595 nm, and At is the absorbance at 595 nm after incubation.
The percentage platelet aggregation inhibition was calculated by the following equation: […]
where PAPBS is the platelet aggregation in the PRP control in the presence of thrombin and PBS only (no peptides), and PAs is the platelet aggregation in the PRP sample in the presence of thrombin and peptides.

The target in series [5] is active GPIIb-IIIa (αIIbβ3) integrin on thrombin-activated platelets (sheep). Briefly: cell-based or functional assay.
active GPIIb-IIIa (αIIbβ3) integrin on thrombin-activated platelets (sheep), sequence (chain, as listed by the source, chain 1 of 2): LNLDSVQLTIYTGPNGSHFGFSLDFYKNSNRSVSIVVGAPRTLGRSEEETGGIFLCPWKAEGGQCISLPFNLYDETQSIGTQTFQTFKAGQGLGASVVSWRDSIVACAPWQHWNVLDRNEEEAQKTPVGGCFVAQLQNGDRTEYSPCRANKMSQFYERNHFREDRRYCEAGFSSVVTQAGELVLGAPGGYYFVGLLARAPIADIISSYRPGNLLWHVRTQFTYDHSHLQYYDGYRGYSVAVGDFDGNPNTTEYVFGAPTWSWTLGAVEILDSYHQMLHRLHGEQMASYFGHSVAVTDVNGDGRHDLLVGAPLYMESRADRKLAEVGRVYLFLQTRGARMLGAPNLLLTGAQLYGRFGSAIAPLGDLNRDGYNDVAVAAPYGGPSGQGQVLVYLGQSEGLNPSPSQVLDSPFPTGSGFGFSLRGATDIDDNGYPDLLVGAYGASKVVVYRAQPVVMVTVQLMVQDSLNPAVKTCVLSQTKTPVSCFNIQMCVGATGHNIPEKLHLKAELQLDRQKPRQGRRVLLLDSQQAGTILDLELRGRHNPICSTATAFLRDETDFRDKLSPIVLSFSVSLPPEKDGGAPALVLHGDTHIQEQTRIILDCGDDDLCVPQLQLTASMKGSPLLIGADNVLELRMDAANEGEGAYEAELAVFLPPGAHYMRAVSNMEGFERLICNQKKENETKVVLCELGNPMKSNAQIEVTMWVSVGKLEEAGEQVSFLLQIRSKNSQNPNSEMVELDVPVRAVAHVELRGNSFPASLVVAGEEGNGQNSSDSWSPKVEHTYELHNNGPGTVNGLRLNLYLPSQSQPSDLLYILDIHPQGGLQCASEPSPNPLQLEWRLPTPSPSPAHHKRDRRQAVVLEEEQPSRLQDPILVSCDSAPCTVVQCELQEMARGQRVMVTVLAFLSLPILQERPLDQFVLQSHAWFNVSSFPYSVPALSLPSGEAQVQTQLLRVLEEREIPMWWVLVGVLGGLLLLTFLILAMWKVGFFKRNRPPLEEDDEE
active GPIIb-IIIa (αIIbβ3) integrin on thrombin-activated platelets (sheep), sequence (chain, as listed by the source, chain 2 of 2): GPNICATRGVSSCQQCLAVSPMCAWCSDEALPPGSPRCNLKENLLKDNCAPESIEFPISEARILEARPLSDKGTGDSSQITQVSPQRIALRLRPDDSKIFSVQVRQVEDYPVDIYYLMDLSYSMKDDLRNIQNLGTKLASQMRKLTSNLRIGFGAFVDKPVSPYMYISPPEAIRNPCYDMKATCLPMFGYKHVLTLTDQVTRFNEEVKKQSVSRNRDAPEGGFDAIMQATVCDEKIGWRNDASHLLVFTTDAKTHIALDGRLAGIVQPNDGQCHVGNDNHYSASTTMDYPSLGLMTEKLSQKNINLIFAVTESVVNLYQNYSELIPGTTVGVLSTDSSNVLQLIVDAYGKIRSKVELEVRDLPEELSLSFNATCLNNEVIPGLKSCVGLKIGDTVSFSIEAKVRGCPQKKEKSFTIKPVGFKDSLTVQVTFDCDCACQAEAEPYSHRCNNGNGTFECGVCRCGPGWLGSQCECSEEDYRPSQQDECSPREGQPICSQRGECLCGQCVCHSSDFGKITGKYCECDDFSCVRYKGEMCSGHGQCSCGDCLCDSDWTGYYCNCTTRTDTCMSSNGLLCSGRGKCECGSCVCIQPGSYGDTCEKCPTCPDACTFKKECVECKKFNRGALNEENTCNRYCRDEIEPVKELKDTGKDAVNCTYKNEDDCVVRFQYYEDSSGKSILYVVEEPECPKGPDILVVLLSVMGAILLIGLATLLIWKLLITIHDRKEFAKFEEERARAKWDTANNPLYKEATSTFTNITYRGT
The subject of series [6] is AA-induced platelet aggregation. Kind of series: In vitro antiplatelet aggregation assay, arachidonic acid (AA)-induced. The format is cell-based, sheep. Conditions: Ovis aries, equivalent ASA concentration of 0.1 mM, read-out: Percentage of inhibition of AA-induced platelet aggregation. Here is the method:
(§1) The final platelet count was adjusted to 2 × 10^8 platelets/mL. 150 µL of PRP was seeded in 96-well plates and was incubated with 50 µL of various formulations: ASA-RBCVs, ASA-RGD-RBCVs, ASA-cRGD-PEG-RBCVs or ASA (equivalent ASA concentration of 0.1 mM) in the presence of 10 µL platelet agonist thrombin in PBS (4 µM), arachidonic acid (AA) in PBS (400 µM) or adenosine diphosphate (ADP) in PBS (15 µM). After incubation under shaking at 37° C. for 40 min, the absorbance at 595 nm was measured by a GloMax-Multi Microplate Multimode Reader (Promega, USA). The aggregation percentage was calculated by the equation 2. From the platelet aggregation percentage and comparison to aggregation of PBS without samples, the inhibition percentage was calculated by the equation 3.

Series [7] has as its system thrombin-induced platelet aggregation. Kind of series: In vitro antiplatelet aggregation assay, thrombin-induced. As to conditions: Ovis aries, equivalent ASA concentration of 0.1 mM, read-out: Percentage of inhibition of thrombin-induced platelet aggregation. Type of series: cell-based, sheep. Here is the method:
as §1

Series [8] relates to thrombin-induced thrombus in sheep blood. Kind of series: In vitro antithrombotic assay (wet thrombus weight). Type of series: cell-based. Conditions: equivalent ASA 0.1 mM, 37° C., 30 min. How it is done:
200 µL of sheep blood was added into a weighted tube. Then, 50 µL specific formulation (PBS, ASA-RBCVs, ASA-RGD-RBCVs, ASA-cRGD-PEG-RBCVs or ASA at an equivalent ASA concentration of 0.1 mM) was added in the tube, and then 10 µL of thrombin in PBS (4 µM) was added in each well and incubated at 37° C. under shaking for 30 min. Finally, the un-clotted blood was removed to obtain the weight of the wet clotted thrombus.

The subject of series [9] is ADP-induced platelet aggregation. Kind of series: In vitro antiplatelet aggregation assay, ADP-induced. The format is cell-based, sheep. Conditions: Ovis aries, equivalent ASA concentration of 0.1 mM, read-out: Percentage of inhibition of ADP-induced platelet aggregation. How it is done:
as §1

Series [10] addresses T1, active GPIIb-IIIa (αIIbβ3) integrin on thrombin-activated platelets (sheep, UniProt A0ACI6RZ73 32-1033; A0ACI6S117 125-886). Briefly: cell-based or functional assay.
In series [11] the target is T1, active GPIIb-IIIa (αIIbβ3) integrin on …. Briefly: MFI of confocal images of thrombin-activated platelets; reference is uncoated tPA-RBCVs. Here is the method: 2 mL platelets (1.0 × 10⁸ mL⁻¹) were seeded in 6-well plates, with a collagen-coated glass coverslip on the bottom of each well. After 30 min, 100 µL thrombin (1 U/mL) was added onto the platelet-adhered coverslips to ensure activation of platelets at least 20 min. Inactivated platelets or thrombin-activated platelets were incubated with various FITC-labelled tPA-loaded vesicle formulations (equivalent tPA concentration of 0.2 mg mL⁻¹). The platelets were then fixed with 4.0% formaldehyde for 30 min, followed by rinsing with pH 7.4 PBS buffer for three times. Subsequently, the resulting slides were mounted and observed with a Leica SP₅ MP confocal microscope.

Series [12] shares this target. Briefly: flow cytometry on thrombin-activated platelets; reference is uncoated tPA-RBCVs. Here is the method: 2 mL platelets (1.0 × 10⁸ mL⁻¹) were seeded in 6-well plates and activated by incubation with 100 µL thrombin (1 U/mL) for at least 20 min. Inactivated platelets or thrombin-activated platelets were incubated with various FITC-labelled tPA-loaded vesicle formulations (equivalent tPA concentration of 0.2 mg mL⁻¹). Free vesicles, which were not attached to platelets, were removed by centrifugation. Data for 1.0 × 10⁴ gated events were collected and analysed using a BD Fortessa II flow cytometer.
For orientation: A flow cytometer gives signals particle by particle.

The target is the same in series [13]. Briefly: flow cytometry on thrombin-activated platelets; reference is uncoated RBCVs. How it is done: 2 mL platelets (1.0 × 10⁸ mL⁻¹) were seeded in 6-well plates and activated by incubation with 100 µL thrombin (1 U/mL) for at least 20 min. Inactivated platelets or thrombin-activated platelets were incubated with various NBD-labelled RBCV formulations (equivalent NBD-PE of 1.0 × 10⁻⁷ mol). Free vesicles, which were not attached to platelets, were removed by centrifugation. Data for 1.0 × 10⁴ gated events were collected and analysed using a BD Fortessa II flow cytometer.

For series [14] the target is unchanged. Briefly: MFI of confocal images of thrombin-activated platelets; reference is uncoated RBCVs.

Square brackets hold non-standard residues; d marks the D form. Side chains are listed from the residue outwards. Ends that are not written are not given here. maleimidomethyl‑cyclohexane‑carboxamide = linker coupling the Cys to DSPE; DSPE = DSPE lipid anchoring the peptide in the vesicle membrane

T1 sequence (chain, as listed by the source, chain 1 of 2): as the sequence (chain, as listed by the source, chain 1 of 2) above
T1 sequence (chain, as listed by the source, chain 2 of 2): as the sequence (chain, as listed by the source, chain 2 of 2) above

“tPA: Tissue plasminogen activator (tPA, alteplase), product of Boehringer Ingelheim”: the “Area of fibrin lysis ring” value in series [1] is given as 1.18 ± 0.17 cm^2. The Half-life in series [2] is given as 2~6 min. Moreover, the “Blood clot lysis (in words)” value in series [3] is recorded as “complete blood clot lysis”.

Broadly, the IC50 is the point on the concentration scale where inhibition reaches its midpoint. Low values mean inhibition by little substance, high ones a need for much substance. Regarding `CC(C)[C@@H]1NC(=O)[C@@H](Cc2ccccc2)NC(=O)[C@H](CC(=O)O)NC(=O)CNC(=O)[C@H](CCCNC(=N)N)NC1=O` [cRGD, cyclo(Arg-Gly-Asp-d-Phe-Val)], the concentration for half-maximal inhibition (IC50) in series [4] turned out to be 460 µM.

Molecule linear RGD peptide (Arg-Gly-Asp), free came in with an IC50 (peptide concentration for 50% inhibition of fibrinogen-mediated platelet aggregation in PRP, thrombin 4 µM) in series [5] of 382 µM.

What is called inhibition is the change of the read-out against control, counted positive when it falls. On to `CC(=O)Oc1ccccc1C(=O)O` [ASA, acetylsalicylic acid], for which the inhibition at 100 µM in [6] was 23.8 ± 4.26%; in series [7] it was 20.5 ± 1.04%; in series [9], 27.6 ± 2.71%. Also, in series [8], the Thrombus weight is 49.27 ± 10.73 mg.

Consider cyclo(RGD[dF]V) [cyclo(Arg-Gly-Asp-d-Phe-Val), free], for which, in series [10], the “IC50 (peptide concentration for 50% inhibition of fibrinogen-mediated platelet aggregation in PRP, thrombin 4 µM)” value turned out to be 460 µM.

B1: tPA-loaded, RGD-coated red blood cell-derived vesicles (tPA-RGD-RBCVs) (other)
peptide: C([maleimidomethyl‑cyclohexane‑carboxamide-DSPE])RGD
modifications: also: many copies anchored in red blood cell-derived vesicle membrane, tPA encapsulated
notes: also called FITC-labelled tPA-RGD-RBCVs; fibrinogen-mimicking RBCV
As to B1, the “fold enhancement in binding affinity (MFI) against tPA-RBCVs” value in series [11] is about 4 fold. Also, in [12], the “fold increase in fluorescence intensity against FITC-labelled tPA-RBCVs” value is over 4 fold.

B2: RGD-coated red blood cell-derived vesicles without drug (RGD-RBCVs) (other)
peptide: C([maleimidomethyl‑cyclohexane‑carboxamide-DSPE])RGD
notes: Vesicle labelled with NBD-PE for flow cytometry and CLSM, or with NBD-PE and Rhod-PE for FRET; also called NBD-labelled RGD-RBCVs
As to B2, in series [13], the “fold increase in fluorescence intensity against NBD-labelled RBCVs” value is over 4 fold. The “fold enhancement in binding affinity (MFI) against RBCVs” value in [14] was about 4 fold.
